According to patent US5962504A, “Substituted 2-pyrrolidinone activators of PKC” (Georgetown University, priority 1998, dated 1999):

Assays:
PKC [1] = test: ability of representative compounds to activate PKC (Ki, Table 1; procedure similar to Kozikowski et al. J. Med. Chem. 1997); format: binding; details: read-out: Ki ± SEM
PKC [2] = details: background statement; cited from earlier work

| Compound | Ki (PKC [1]) | PKC activation, isozyme selectivity (PKC [2]) |
| --- | --- | --- |
| CC(C)[C@H]1C(=O)N[C@H](CO)[C@@H]1c1cccc2ccccc12 [Compound 11a, (3R,4S,5S)-3-Isopropyl-4-(1-naphthyl)-5-(hydroxymethyl)pyrrolidin-2-one] | 5.5 µM | – |
| CC1=C[C@H]2[C@@]3(O)[C@H](C)C[C@]4(OC(=O)Cc5ccccc5)[C@H]([C@@H]3C=C(CO)C[C@]2(O)C1=O)C4(C)C [Dpp, 12-deoxyphorbol 13-phenylacetate] | – | isozyme-selective activators of PKC |
| CCCCCCCCCc1ccc([C@@H]2[C@@H](C(C)C)C(=O)N[C@@H]2CO)cc1 [Compound 4b, (3R, 4S, 5S)-3-Isopropyl-4-(4-nonylphenyl)-5-(hydroxymethyl)-pyrrolidin-2-one] | 2.3 ± 0.2 µM | – |
| CCCCCC(=O)Oc1ccc([C@@H]2[C@@H](C(C)C)C(=O)N[C@@H]2CO)c2ccccc12 [Compound 11b, (3R,4S,5S)-3-Isopropyl-4-(4-hexanoyloxynaphth-1-yl)-5-(hydroxymethyl)pyrrolidin-2-one] | 0.5 ± 0.04 µM | – |
| CC(C)[C@H]1C(=O)N[C@H](CO)[C@@H]1c1ccccc1 [Compound 4a, (3R, 4S, 5S)-3-Isopropyl-4-phenyl-5-(hydroxymethyl)pyrrolidin-2-one] | 129 µM | – |
